Tested on: cystic lymphangioma of PDGFRβ knockout mice
Test: Therapy experiment in cystic lymphangioma of PDGFRβ knockout mice (diameter of LYVE1-positive lymph vessels)
Assay type: in vivo, mouse
Details: intraperitoneal three times a week (Erlotinib 50 mg/kg; antibody 5 μg/body), compared with the group of PDGFRβ knockout mice without treatment
Method: To PDGFRβ knockout mice, a neutralizing antibody against amphiregulin (AF989, R&D Systems Inc.) and Erlotinib having EGFR inhibitory activity (Selleck Biotech) were administered for the purpose of treating cystic lymphangioma. The neutralizing antibody against amphiregulin was dissolved in PBS at 25 μg/mL and administered intraperitoneally at 5 μg/body three times a week. Erlotinib was dissolved in DMSO at 50 mg/mL and administered intraperitoneally at 50 mg/kg three times a week. A group of PDGFRβ knockout mice without treatment and a control group of mice in which PDGFRβ was not knocked out were also prepared.
The tissues of PDGFRβ knockout mice were fixed with paraformaldehyde (PFA). Paraffin sections were prepared using fixed samples. The tissue sections were washed with a buffer and antigen-retrieved by heating in a microwave oven for 5 minutes using a commercial retrieval solution. Next, each sample was washed with a buffer solution and the tissues or the cells were subjected to a commercial blocking solution (room temperature, one hour).
Next, each sample was washed with a buffer and subjected to an anti-LYVE1 antibody (Abcam, a primary antibody) at optimum concentration (4° C., overnight). […] The obtained sample was observed and photographed with a fluorescence microscope.
The diameter of each lymph vessel was measured with ImageJ imaging software based on the photographed images. […]

C#Cc1cccc(Nc2ncnc3cc(OCCOC)c(OCCOC)cc23)c1 [Erlotinib]
diameter of dilated lymph vessels: significantly reduced

From US12698324B2, “Cystic lymphangioma treatment drug” (National University Corporation University of Toyama, priority 2020, dated 2026)
